Reference: publication PMC8139947, “Novel late-stage radiosynthesis of 5-[18F]-trifluoromethyl-1,2,4-oxadiazole (TFMO) containing molecules for PET imaging” (Scientific Reports, 2021)

Tests used:
[1] = Partition coefficient (LogD), octanol/PBS shake flask method; type: physicochemical; details: octanol / phosphate buffer pH 7.4, shake flask, radioactivity counted by gamma-counter; read-out: LogD (observed)
Description: We determined the partition coefficients (LogD) using the octanol/PBS shake flask method.

[2] = Aqueous solubility / formulation for in vivo studies; type: physicochemical; details: high concentration of DMSO (~ 50%) needed to solubilise the tracer

CC(C)(CNC(=O)c1cccc(-c2noc(C(F)(F)[18F])n2)c1)c1coc(-c2ccccc2)n1 [[^18F]TMP195, N-(2-methyl-2-(2-phenyloxazol-4-yl)propyl)-3-(5-([18F]trifluoromethyl)-1,2,4-oxadiazol-3-yl)benzamide]
logD [1]: > 6 | aqueous solubility [2]: poor
